{"source": "ChEMBL document CHEMBL1132957", "about": "“Design of potent dicyclic (4-10/5-8) gonadotropin releasing hormone (GnRH) antagonists” (J Med Chem, 2000)", "key": {"Rattus norvegicus [1]": {"system": "Rattus norvegicus", "assay": "Evaluated for the ovulation effects in the rat by administering the drug at the doses (2.5 ug); 9/10", "assay_type": "functional, organism-based"}, "Rattus norvegicus [2]": {"system": "Rattus norvegicus", "assay": "Evaluated for the ovulation effects in the rat by administering the drug at the doses (10 ug); 0/10", "assay_type": "functional, organism-based"}, "Rattus norvegicus [3]": {"system": "Rattus norvegicus", "assay": "Evaluated for the ovulation effects in the rat by administering the drug at the doses (5 ug); 3/20", "assay_type": "functional, organism-based"}, "[4]": {"target": "T1, Gonadotropin-releasing hormone receptor (Rattus norvegicus, UniProt P30969)", "T1 sequence (P30969 whole entry)": "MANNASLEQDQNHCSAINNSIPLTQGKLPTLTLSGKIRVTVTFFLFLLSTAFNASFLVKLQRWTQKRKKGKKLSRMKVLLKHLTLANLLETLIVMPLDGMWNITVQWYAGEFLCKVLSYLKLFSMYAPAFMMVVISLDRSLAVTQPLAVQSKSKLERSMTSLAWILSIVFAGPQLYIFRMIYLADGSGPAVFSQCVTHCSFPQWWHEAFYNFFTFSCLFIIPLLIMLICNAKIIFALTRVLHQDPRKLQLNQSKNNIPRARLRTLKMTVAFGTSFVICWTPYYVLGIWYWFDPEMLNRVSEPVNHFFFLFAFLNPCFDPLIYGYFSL", "assay": "Competitive radioligand binding assay, in human HEK293 cells stably transfected with the rat Gonadotropin-releasing hormone receptor", "assay_type": "cell-based"}, "Rattus norvegicus [5]": {"system": "Rattus norvegicus", "assay": "Evaluated for the ovulation effects in the rat by administering the drug at the doses (1.0 ug); 11/15", "assay_type": "functional, organism-based"}, "Rattus norvegicus [6]": {"system": "Rattus norvegicus", "assay": "Evaluated for the ovulation effects in the rat by administering the drug at the doses (5 ug); 1/8", "assay_type": "functional, organism-based"}, "Rattus norvegicus [7]": {"system": "Rattus norvegicus", "assay": "Evaluated for the ovulation effects in the rat by administering the drug at the doses (10 ug); 0/9", "assay_type": "functional, organism-based"}, "Rattus norvegicus [8]": {"system": "Rattus norvegicus", "assay": "Evaluated for the ovulation effects in the rat by administering the drug at the doses (2.5 ug); 3/10", "assay_type": "functional, organism-based"}, "Rattus norvegicus [9]": {"system": "Rattus norvegicus", "assay": "Evaluated for the ovulation effects in the rat by administering the drug at the doses (2.5 ug); 3/3", "assay_type": "functional, organism-based"}, "Rattus norvegicus [10]": {"system": "Rattus norvegicus", "assay": "Evaluated for the ovulation effects in the rat by administering the drug at the doses (5 ug); 2/6", "assay_type": "functional, organism-based"}, "Rattus norvegicus [11]": {"system": "Rattus norvegicus", "assay": "Evaluated for the ovulation effects in the rat by administering the drug at the doses (10 ug); 4/9", "assay_type": "functional, organism-based"}, "Rattus norvegicus [12]": {"system": "Rattus norvegicus", "assay": "Evaluated for the ovulation effects in the rat by administering the drug at the doses (250 ug); 1/3"}, "Rattus norvegicus [13]": {"system": "Rattus norvegicus", "assay": "Evaluated for the ovulation effects in the rat by administering the drug at the doses (10 ug); 3/3", "assay_type": "functional, organism-based"}, "Rattus norvegicus [14]": {"system": "Rattus norvegicus", "assay": "Evaluated for the ovulation effects in the rat by administering the drug at the doses (250 ug); 0/6", "assay_type": "functional, organism-based"}, "Rattus norvegicus [15]": {"system": "Rattus norvegicus", "assay": "Evaluated for the ovulation effects in the rat by administering the drug at the doses (25 ug); 2/5", "assay_type": "functional, organism-based"}, "Rattus norvegicus [16]": {"system": "Rattus norvegicus", "assay": "Evaluated for the ovulation effects in the rat by administering the drug at the doses (50 ug); 2/8", "assay_type": "functional, organism-based"}, "Rattus norvegicus [17]": {"system": "Rattus norvegicus", "assay": "Evaluated for the ovulation effects in the rat by administering the drug at the doses (100 ug); 1/8", "assay_type": "functional, organism-based"}, "Rattus norvegicus [18]": {"system": "Rattus norvegicus", "assay": "Evaluated for the ovulation effects in the rat by administering the drug at the doses (1.0 ug); 2/11", "assay_type": "functional, organism-based"}, "Rattus norvegicus [19]": {"system": "Rattus norvegicus", "assay": "Evaluated for the ovulation effects in the rat by administering the drug at the doses (2.5 ug); 1/8", "assay_type": "functional, organism-based"}, "Rattus norvegicus [20]": {"system": "Rattus norvegicus", "assay": "Evaluated for the ovulation effects in the rat by administering the drug at the doses (0.5 ug); 5/5", "assay_type": "functional, organism-based"}}, "note": "pKi: −log10 of the molar value. Active and inactive are the calls of the source. No cut-off for these calls is given here. Positions of bridges follow the written chain, without caps; N, C: chain ends. Non-standard residues stand in square brackets, D forms with d. Residues, ends and D or L forms follow the SMILES beside them. dPhe(4-Cl) = N[C@H](Cc1ccc(Cl)cc1)C(=O)O; d2Nal = N[C@H](Cc1ccc2ccccc2c1)C(=O)O; Dap = NC[C@H](N)C(=O)O"}
{"smiles": "CC(=O)N[C@H](Cc1ccc2ccccc2c1)C(=O)N[C@H](Cc1ccc(Cl)cc1)C(=O)N[C@H](Cc1c[nH]c2ccccc12)C(=O)N[C@H]1CC(=O)NC[C@@H](C(N)=O)NC(=O)[C@@H]2CCCN2C(=O)[C@@H]2CCCCNC(=O)CC[C@H](NC1=O)C(=O)N[C@H](CCCN=C(N)N)C(=O)N[C@@H](CC(C)C)C(=O)N2", "note": "(Ac-[d2Nal][dPhe(4-Cl)][dW]DE[dR]LKP[Dap]-NH2; lactam 4-10, 5-8)", "values": [{"measurement": "Activity", "setting": "Rattus norvegicus [1]", "value": "inactive"}, {"measurement": "Activity", "setting": "Rattus norvegicus [2]", "value": "Active"}, {"measurement": "Activity", "setting": "Rattus norvegicus [3]", "value": "Weak activity"}, {"measurement": "pKi", "setting": "[4]", "value": 9.49}]}
{"smiles": "CC(=O)N[C@H](Cc1ccc2ccccc2c1)C(=O)N[C@H](Cc1ccc(Cl)cc1)C(=O)N[C@H](Cc1cccnc1)C(=O)N[C@H]1CC(=O)NC[C@@H](C(N)=O)NC(=O)[C@@H]2CCCN2C(=O)[C@@H]2CCNC(=O)[C@H](Cc3ccccc3)NC(=O)CC[C@H](NC1=O)C(=O)N[C@H](CCCN=C(N)N)C(=O)N[C@@H](CC(C)C)C(=O)N2", "values": [{"measurement": "Activity", "setting": "Rattus norvegicus [5]", "value": "inactive"}, {"measurement": "Activity", "setting": "Rattus norvegicus [6]", "value": "Active"}, {"measurement": "Activity", "setting": "Rattus norvegicus [7]", "value": "Active"}, {"measurement": "Activity", "setting": "Rattus norvegicus [8]", "value": "Weak activity"}, {"measurement": "pKi", "setting": "[4]", "value": 9.64}]}
{"smiles": "CC(=O)N[C@H](Cc1ccc2ccccc2c1)C(=O)N[C@H](Cc1ccc(Cl)cc1)C(=O)N[C@H](Cc1cccnc1)C(=O)N[C@H]1CC(=O)NC[C@@H](C(N)=O)NC(=O)[C@@H]2CCCN2C(=O)[C@@H]2CCCNC(=O)[C@H](Cc3ccccc3)NC(=O)C[C@H](NC1=O)C(=O)N[C@H](CCCN=C(N)N)C(=O)N[C@@H](CC(C)C)C(=O)N2", "values": [{"measurement": "Activity", "setting": "Rattus norvegicus [9]", "value": "inactive"}, {"measurement": "Activity", "setting": "Rattus norvegicus [10]", "value": "Weak activity"}, {"measurement": "pKi", "setting": "[4]", "value": 9.12}]}
{"smiles": "CC(=O)N[C@H](Cc1ccc2ccccc2c1)C(=O)N[C@H](Cc1ccc(Cl)cc1)C(=O)N[C@H](Cc1cccnc1)C(=O)N[C@H]1CC(=O)NC[C@@H](C(N)=O)NC(=O)[C@@H]2CCCN2C(=O)[C@@H]2CCNC(=O)CN(C)C(=O)CC[C@H](NC1=O)C(=O)N[C@H](CCCN=C(N)N)C(=O)N[C@@H](CC(C)C)C(=O)N2", "values": [{"measurement": "Activity", "setting": "Rattus norvegicus [11]", "value": "Weak activity"}, {"measurement": "pKi", "setting": "[4]", "value": 9.70}]}
{"smiles": "CC(=O)N[C@H](Cc1ccc2ccccc2c1)C(=O)N[C@H](Cc1ccc(Cl)cc1)C(=O)N[C@H](Cc1c[nH]c2ccccc12)C(=O)N[C@H]1CC(=O)NC[C@@H](C(N)=O)NC(=O)[C@@H]2CCCN2C(=O)[C@@H]2CCCCNC(=O)CC[C@H](NC1=O)C(=O)N[C@H](Cc1ccc3ccccc3c1)C(=O)N[C@@H](CC(C)C)C(=O)N2", "values": [{"measurement": "pKi", "setting": "[4]", "value": 8.92}]}
{"smiles": "CC(=O)N[C@H](Cc1ccc2ccccc2c1)C(=O)N[C@H](Cc1ccc(Cl)cc1)C(=O)N[C@H](Cc1cccnc1)C(=O)N[C@H]1CC(=O)NC[C@@H](C(N)=O)NC(=O)[C@@H]2CCCN2C(=O)[C@@H]2CCNC(=O)[C@H](CCCN=C(N)N)NC(=O)CC[C@H](NC1=O)C(=O)N[C@H](Cc1cccnc1)C(=O)N[C@@H](CC(C)C)C(=O)N2", "values": [{"measurement": "Activity", "setting": "Rattus norvegicus [12]", "value": "Weak activity"}, {"measurement": "Activity", "setting": "Rattus norvegicus [13]", "value": "inactive"}, {"measurement": "Activity", "setting": "Rattus norvegicus [14]", "value": "Active"}, {"measurement": "pKi", "setting": "[4]", "value": 9.23}]}
{"smiles": "CC(=O)N[C@H](Cc1ccc2ccccc2c1)C(=O)N[C@H](Cc1ccc(Cl)cc1)C(=O)N[C@H](Cc1cccnc1)C(=O)N[C@H]1CC(=O)NC[C@@H](C(N)=O)NC(=O)[C@@H]2CCCN2C(=O)[C@@H]2CCCCNC(=O)CC[C@H](NC1=O)C(=O)N[C@H](Cc1ccc3ccccc3c1)C(=O)N[C@@H](CC(C)C)C(=O)N2", "values": [{"measurement": "Activity", "setting": "Rattus norvegicus [15]", "value": "Weak activity"}, {"measurement": "Activity", "setting": "Rattus norvegicus [16]", "value": "Weak activity"}, {"measurement": "pKi", "setting": "[4]", "value": 8.89}, {"measurement": "Activity", "setting": "Rattus norvegicus [17]", "value": "Active"}]}
{"smiles": "CC(=O)N[C@H](Cc1ccc2ccccc2c1)C(=O)N[C@H](Cc1ccc(Cl)cc1)C(=O)N[C@H](Cc1cccnc1)C(=O)N[C@H]1CC(=O)NC[C@@H](C(N)=O)NC(=O)[C@@H]2CCCN2C(=O)[C@@H]2CCNC(=O)[C@H](CCCN=C(N)N)NC(=O)CC[C@H](NC1=O)C(=O)N[C@H](CCCN=C(N)N)C(=O)N[C@@H](CC(C)C)C(=O)N2", "values": [{"measurement": "Activity", "setting": "Rattus norvegicus [18]", "value": "Active"}, {"measurement": "Activity", "setting": "Rattus norvegicus [19]", "value": "Active"}, {"measurement": "Activity", "setting": "Rattus norvegicus [20]", "value": "inactive"}, {"measurement": "pKi", "setting": "[4]", "value": 9.70}]}
{"smiles": "CC(=O)N[C@H](Cc1ccc2ccccc2c1)C(=O)N[C@H](Cc1ccc(F)cc1)C(=O)N[C@H](Cc1c[nH]c2ccccc12)C(=O)N[C@H]1CC(=O)NC(C(N)=O)NC(=O)[C@@H]2CCCN2C(=O)[C@H](CCCNC(=N)N)NC(=O)[C@H](CC(C)C)NC(=O)[C@@H](CCCNC(=N)N)NC(=O)[C@H](Cc2ccc(O)cc2)NC1=O", "note": "(stereo partly drawn)", "values": [{"measurement": "pKi", "setting": "[4]; hek293", "value": 8.89}]}
